Results: patent US10632133B2, “Anti-viral azide containing compounds” (Life Technologies Corporation, priority 2010, dated 2020)

Key:
[1] = tested on: Nuclear-GFP BacMam 2.0 virus (baculovirus); test: BacMam baculovirus infectivity in U2-OS cells (nuclear-GFP expression); type: cell-based; conditions: virus labeled in Sf9 cells with 50 uM analog; 20 or 50 uL virus, overnight at 37C; FIG. 5
From the text: Inhibition of insect cell baculovirus infectivity with azido fatty acid analogs: The BacMam system uses a modified insect cell virus (baculovirus) as a vehicle to efficiently deliver and express genes in mammalian cells, A Nuclear-GFP BacMam 2.0 expression system (Invitrogen, C10602) was used as a model to determine if PTM analog labeling of the virus would affect mammalian cell infectivity. Viruses were labeled with various PTM analogs and used to infect mammalian cells. Infectivity was determined by the expression of nuclear-GFP, is viral entry into the cell is required for expression of GFP protein. […]
Characterization of BacMam virus production: To verify, quantitate, and normalize the amount of enriched viruses obtained from insect cell supernatants, samples of each virus were lysed in SDS sample preparation buffer (SPB), sonicated with a probe tip sonicator, and heated at 90C to completely dissolve the viral proteins. Viral protein concentrations of the lysates were then determined. […]
Mammalian cell infection protocol: To determine if the PTM analog-labeled viruses retain the ability to infect mammalian cells, 50,000 U2-OS cells (human osteosarcoma cell line) were plated onto a 6 well-chamber glass bottom plate. […] The following day cells were imaged on AMG EVOS fluorescence microscope at 10× or 20× magnification using both white light and GFP filters (FIG. 5). […]

HIV = HIV infectivity, luciferase reporter assay on TZM/BI reporter cell line with azide-labeled virus; type: cell-based, human immunodeficiency virus (HIVNL4-3); conditions: virus produced in CEMx174 cells spiked with the compound; incubated 12 hours on TZM/BI; single cycle replication system; two luciferase reagents (FIGS. 3 and 4)
Experimental: CEMx174 cells were transfected with HIVNL4-3 in a T-150 flask and the virus production was monitored by reverse transcriptase activity until peak virus production occurred (usually 7 to 9 days post transfection). Prior to transfection, the CEMx174 cells were spiked with the following azide-modified biomolecules: 15-azidopentadecanoic acid (50-100 μM), 12-azidododecanoic acid (50-100 μM), tetraacetylated N-azidoacetylgalactosamine (20-40 μM), and tetraacetylated N-azidoacetyl-D-mannosamine (20-40 μM).
Labeled virus was also obtained from the transfected cells. More specifically, virus-containing supernatants were collected and virus was purified through 20% sucrose as previously described (Graham, D. R. et al., Proteomics 2008, 8:4919-30). The purified virus was then mixed with the CLICK-IT® detection reagent, tetramethylrhodamine (TAMRA) alkyne and the CLICK-IT® Protein Reaction Buffer Kit (Invitrogen, Carlsbad, Calif.). Virus samples were run on a one-dimensional gel to reveal azide-labeled viral proteins (FIG. 2). […]
To examine the effect of the azide-modified biomolecules on the innate biology of the virus, the azide-labeled virus from the transfected cells was isolated and tested in cell infection studies. […] Viral infectivity was determined by measuring cellular luciferase activities with two different luciferase reagents.

| Compound | nuclear-GFP expression in U2-OS cells treated with labeled BacMam virus [1] | impact on the infectivity of the virus (cellular luciferase activities) (HIV) |
| --- | --- | --- |
| [N-]=[N+]=NCCCCCCCCCCCC(=O)O [12-azidododecanoic acid] | no nuclear-GFP expression | profound impact on the infectivity of the virus |
| [N-]=[N+]=NCCCCCCCCCCCCCCC(=O)O [15-azidopentadecanoic acid] | no nuclear-GFP expression | – |
